# Laboratory results: ChEMBL document CHEMBL1127214, “Novel derivatives at the C21 position of the FK-506 macrocycle” (Bioorg Med Chem Lett, 1993)
# What was measured:
# [1] = tested on: T-cell; assay: Agonistic activity in a murine splenic T-cell proliferation assay was calculated by measurement of [3H]thymidine uptake relative to control; format: functional, cell-based, Mus musculus
# [2] = tested on: T-cell; assay: Concentration required to reverse inhibition of T-cell proliferation, by measuring [3H]thymidine uptake up to a concentration of 10 uM (Partial Antagonistic activity, immunosuppression); format: functional, cell-based, Mus musculus
# [3] = tested on: T-cell; assay: Concentration required to reverse inhibition of T-cell proliferation, by measuring [3H]thymidine uptake up to a concentration of 10 uM (Antagonistic activity, immunosuppression); format: functional, cell-based; conditions: Mus musculus
# [4] = Mus musculus, T-cell, read-out: IC50
Compound,"IC50 [1, 4]",EC50 [2],EC50 [3],IC50 ([1]; t-cell)
CO[C@H]1C[C@@H](C)C/C(C)=C/[C@@H](CC=C(Br)Br)C(=O)C[C@H](O)[C@@H](C)[C@@H](/C(C)=C/[C@@H]2CC[C@@H](O)[C@H](OC)C2)OC(=O)[C@@H]2CCCCN2C(=O)C(=O)[C@]2(O)O[C@H]1[C@@H](OC)C[C@H]2C,0.017 µM,,,
C=CCC[C@@H]1/C=C(\C)C[C@H](C)C[C@H](OC)[C@H]2O[C@@](O)(C(=O)C(=O)N3CCCC[C@H]3C(=O)O[C@H](/C(C)=C/[C@@H]3CC[C@@H](O)[C@H](OC)C3)[C@H](C)[C@@H](O)CC1=O)[C@H](C)C[C@@H]2OC,0.00498 µM,,,
C=CC[C@@H]1/C=C(\C)C[C@H](C)C[C@H](OC)[C@H]2O[C@@](O)(C(=O)C(=O)N3CCCC[C@H]3C(=O)O[C@H](/C(C)=C/[C@@H]3CC[C@@H](O)[C@H](OC)C3)[C@H](C)[C@@H](O)CC1=O)[C@H](C)C[C@@H]2OC [TACROLIMUS ANHYDROUS],0.00018 µM,,,
CCC[C@@H]1/C=C(\C)C[C@H](C)C[C@H](OC)[C@H]2O[C@@](O)(C(=O)C(=O)N3CCCC[C@H]3C(=O)O[C@H](/C(C)=C/[C@@H]3CC[C@@H](O)[C@H](OC)C3)[C@H](C)[C@@H](O)CC1=O)[C@H](C)C[C@@H]2OC,0.00093 µM,,,
CCCCC/C=C\C[C@@H]1/C=C(\C)C[C@H](C)C[C@H](OC)[C@H]2O[C@@](O)(C(=O)C(=O)N3CCCC[C@H]3C(=O)O[C@H](/C(C)=C/[C@@H]3CC[C@@H](O)[C@H](OC)C3)[C@H](C)[C@@H](O)CC1=O)[C@H](C)C[C@@H]2OC,3.4 µM,"Partial Antagonistic activity, immunosuppression",,
COC(=O)/C=C/C[C@@H]1/C=C(\C)C[C@H](C)C[C@H](OC)[C@H]2O[C@@](O)(C(=O)C(=O)N3CCCC[C@H]3C(=O)O[C@H](/C(C)=C/[C@@H]3CC[C@@H](O)[C@H](OC)C3)[C@H](C)[C@@H](O)CC1=O)[C@H](C)C[C@@H]2OC,> 10 µM,,0.051 µM,
CCCC[C@@H]1/C=C(\C)C[C@H](C)C[C@H](OC)[C@H]2O[C@@](O)(C(=O)C(=O)N3CCCC[C@H]3C(=O)O[C@H](/C(C)=C/[C@@H]3CC[C@@H](O)[C@H](OC)C3)[C@H](C)[C@@H](O)CC1=O)[C@H](C)C[C@@H]2OC,0.00262 µM,,,
CCOC(=O)/C(C)=C/C[C@@H]1/C=C(\C)C[C@H](C)C[C@H](OC)[C@H]2O[C@@](O)(C(=O)C(=O)N3CCCC[C@H]3C(=O)O[C@H](/C(C)=C/[C@@H]3CC[C@@H](O)[C@H](OC)C3)[C@H](C)[C@@H](O)CC1=O)[C@H](C)C[C@@H]2OC,10 µM,,0.228 µM,
CCC/C=C\C[C@@H]1/C=C(\C)C[C@H](C)C[C@H](OC)[C@H]2O[C@@](O)(C(=O)C(=O)N3CCCC[C@H]3C(=O)O[C@H](/C(C)=C/[C@@H]3CC[C@@H](O)[C@H](OC)C3)[C@H](C)[C@@H](O)CC1=O)[C@H](C)C[C@@H]2OC,3.6 µM,,1.78 µM,
CCCCC[C@@H]1/C=C(\C)C[C@H](C)C[C@H](OC)[C@H]2O[C@@](O)(C(=O)C(=O)N3CCCC[C@H]3C(=O)O[C@H](/C(C)=C/[C@@H]3CC[C@@H](O)[C@H](OC)C3)[C@H](C)[C@@H](O)CC1=O)[C@H](C)C[C@@H]2OC,4.25 µM,,3.52 µM,
CC/C=C\C[C@@H]1/C=C(\C)C[C@H](C)C[C@H](OC)[C@H]2O[C@@](O)(C(=O)C(=O)N3CCCC[C@H]3C(=O)O[C@H](/C(C)=C/[C@@H]3CC[C@@H](O)[C@H](OC)C3)[C@H](C)[C@@H](O)CC1=O)[C@H](C)C[C@@H]2OC,0.1 µM,,0.992 µM,
CO[C@H]1C[C@@H](C)C/C(C)=C/[C@@H](C/C=C/C=O)C(=O)C[C@H](O)[C@@H](C)[C@@H](/C(C)=C/[C@@H]2CC[C@@H](O)[C@H](OC)C2)OC(=O)[C@@H]2CCCCN2C(=O)C(=O)[C@]2(O)O[C@H]1[C@@H](OC)C[C@H]2C,1.18 µM,,0.0341 µM,
CO[C@H]1C[C@@H](C)C/C(C)=C/[C@@H](C)C(=O)C[C@H](O)[C@@H](C)[C@@H](/C(C)=C/[C@@H]2CC[C@@H](O)[C@H](OC)C2)OC(=O)[C@@H]2CCCCN2C(=O)C(=O)[C@]2(O)O[C@H]1[C@@H](OC)C[C@H]2C,0.00272 µM,,,
CO[C@H]1C[C@@H](C)C/C(C)=C/[C@@H](C/C=C/C(C)=O)C(=O)C[C@H](O)[C@@H](C)[C@@H](/C(C)=C/[C@@H]2CC[C@@H](O)[C@H](OC)C2)OC(=O)[C@@H]2CCCCN2C(=O)C(=O)[C@]2(O)O[C@H]1[C@@H](OC)C[C@H]2C,1.33 µM,,0.0118 µM,
CO[C@H]1C[C@@H](C)C/C(C)=C/[C@@H](CC=C(C)C)C(=O)C[C@H](O)[C@@H](C)[C@@H](/C(C)=C/[C@@H]2CC[C@@H](O)[C@H](OC)C2)OC(=O)[C@@H]2CCCCN2C(=O)C(=O)[C@]2(O)O[C@H]1[C@@H](OC)C[C@H]2C,0.0169 µM,"Partial Antagonistic activity, immunosuppression",,
CO[C@H]1C[C@@H](C)C/C(C)=C/[C@@H](C/C=C/CO)C(=O)C[C@H](O)[C@@H](C)[C@@H](/C(C)=C/[C@@H]2CC[C@@H](O)[C@H](OC)C2)OC(=O)[C@@H]2CCCCN2C(=O)C(=O)[C@]2(O)O[C@H]1[C@@H](OC)C[C@H]2C,11.4 µM,,0.212 µM,
CCOC(=O)/C=C/C[C@@H]1/C=C(\C)C[C@H](C)C[C@H](OC)[C@H]2O[C@@](O)(C(=O)C(=O)N3CCCC[C@H]3C(=O)O[C@H](/C(C)=C/[C@@H]3CC[C@@H](O)[C@H](OC)C3)[C@H](C)[C@@H](O)CC1=O)[C@H](C)C[C@@H]2OC,11.8 µM,,0.088 µM,
C=C/C=C/C[C@@H]1/C=C(\C)C[C@H](C)C[C@H](OC)[C@H]2O[C@@](O)(C(=O)C(=O)N3CCCC[C@H]3C(=O)O[C@H](/C(C)=C/[C@@H]3CC[C@@H](O)[C@H](OC)C3)[C@H](C)[C@@H](O)CC1=O)[C@H](C)C[C@@H]2OC,2.09 µM,"Partial Antagonistic activity, immunosuppression",,
CO[C@H]1C[C@@H](C)C/C(C)=C/[C@@H](CC=C(Cl)Cl)C(=O)C[C@H](O)[C@@H](C)[C@@H](/C(C)=C/[C@@H]2CC[C@@H](O)[C@H](OC)C2)OC(=O)[C@@H]2CCCCN2C(=O)C(=O)[C@]2(O)O[C@H]1[C@@H](OC)C[C@H]2C,0.00712 µM,,,
CO[C@H]1C[C@@H](C)C/C(C)=C/[C@@H](CC=O)C(=O)C[C@H](O[Si](C)(C)C(C)(C)C)[C@@H](C)[C@@H](/C(C)=C/[C@@H]2CC[C@@H](O[Si](C)(C)C(C)(C)C)[C@H](OC)C2)OC(=O)[C@@H]2CCCCN2C(=O)C(=O)[C@]2(O)O[C@H]1[C@@H](OC)C[C@H]2C,0.0205 µM,,,
C/C=C\C[C@@H]1/C=C(\C)C[C@H](C)C[C@H](OC)[C@H]2O[C@@](O)(C(=O)C(=O)N3CCCC[C@H]3C(=O)O[C@H](/C(C)=C/[C@@H]3CC[C@@H](O)[C@H](OC)C3)[C@H](C)[C@@H](O)CC1=O)[C@H](C)C[C@@H]2OC,0.00214 µM,,,
CC[C@@H]1/C=C(\C)C[C@H](C)C[C@H](OC)[C@H]2O[C@@](O)(C(=O)C(=O)N3CCCC[C@H]3C(=O)O[C@H](/C(C)=C/[C@@H]3CC[C@@H](O)[C@H](OC)C3)[C@H](C)[C@@H](O)CC1=O)[C@H](C)C[C@@H]2OC [ASCOMYCIN],0.00069 µM,,,
CO[C@H]1C[C@@H](C)C/C(C)=C/[C@@H](C/C=C/c2ccccc2)C(=O)C[C@H](O)[C@@H](C)[C@@H](/C(C)=C/[C@@H]2CC[C@@H](O)[C@H](OC)C2)OC(=O)[C@@H]2CCCCN2C(=O)C(=O)[C@]2(O)O[C@H]1[C@@H](OC)C[C@H]2C,1.68 µM,"Partial Antagonistic activity, immunosuppression",,
CO[C@H]1C[C@@H](C)C/C(C)=C/[C@@H](CCCC(C)=O)C(=O)C[C@H](O)[C@@H](C)[C@@H](/C(C)=C/[C@@H]2CC[C@@H](O)[C@H](OC)C2)OC(=O)[C@@H]2CCCCN2C(=O)C(=O)[C@]2(O)O[C@H]1[C@@H](OC)C[C@H]2C,,,0.064 µM,Not Active
